Data on 17 compounds can be found in patent publication US9290476B2, “Methylene linked quinolinyl modulators of RORγt” (Janssen Pharmaceutica NV, priority 2012, dated 2016).

One experiment addresses human RORγt LBD (Homo sapiens (Human), UniProt P51449). As to the kind of experiment: RORγt reporter assay (GAL4-RORγt LBD luciferase in HEK293T cells). In kind it is cell-based. The settings on record: for RORγt reporter Assay, % inhibition @ 6 μM / IC50: HEK293T cells; for IC50: 24 hours compound treatment; for inhibition at 6 µM: HEK-293T, read-out: RORγt reporter Assay, % inhibition @ 6 μM, HEK293T cells, 6 μM. The source says:
A reporter assay was used to test functional activity of RORγt modulatory compounds on transcriptional activation driven by the RORγt LBD. Cells used in the assay were co-transfected with two constructs. The first construct, pBIND-RORγt LBD, contained the wild type human RORγt LBD fused to the DNA binding domain of the GAL4 protein. The second construct, pGL4.31 (Promega Cat no. C935A), contained multiple GAL4 responsive DNA elements upstream of firefly luciferase. […] The mutant construct was called pBIND-RORγt-AF2.
The pBIND vector contains the GAL4 DNA Binding Domain (GAL4 DBD) and the renilla luciferase gene under control of the SV40 promoter. Renilla luciferase expression serves as a control for transfection efficiency and cell viability.
The reporter assay was performed by transiently transfecting HEK293T cells with 5 ng of pBIND-RORγt LBD or pBIND-RORγt LBD-AF2 and 5 μg pGL4.31 (Promega Cat no. C935A) using Fugene 6 ([…] Cat no. E2691) at a 1:6 ratio of DNA: Fugene 6 in a T-75 flask in which cells were at least 80% confluent. Twenty four hours after bulk transfection, cells were plated into 96-well plates at 50,000 cells/well in phenol-red free DMEM containing 5% Lipid Reduced FCS and Pen/Strep. Six hours after plating, cells were treated with compounds for 24 hours. Media was removed and cells were lysed with 50 μL 1× Glo Lysis Buffer (Promega). Dual Glo Luciferase Reagent (50 μL/well) was then added and firefly luciferase luminescence was read on an Envision after a ten minute incubation. Finally, Stop and Glo reagent (50 μL/well) was added and renilla luciferase luminescence was read on an Envision after a ten minute incubation. To calculate the effect of compounds on RORγt activity, the ratio of firefly to renilla luciferase was determined and plotted against compound concentration. Agonist compounds increase RORγt-driven luciferase expression, and antagonist or inverse agonist compounds decrease luciferase expression.
In general terms: A reporter such as luciferase makes a cellular process visible.

Experiment [1] has as its target human RORγt ligand binding domain (RORγt LBD) (Homo sapiens (Human), UniProt P51449). As to the kind of experiment: RORγt ThermoFluor assay (thermal shift binding affinity). The note with it: estimated from thermal shift. Here is the method: This approach is applicable to a wide variety of systems, and rigorous in theoretical interpretation through quantitation of equilibrium binding constants (KD).
The shift in the melting point described as a ΔTm is proportional to the concentration and affinity of the ligand.
RORγt ThermoFluor® Assay Construct
Protein and compound solutions are dispensed into black 384-well polypropylene PCR microplates (Abgene) and overlayed with silicone oil (1 μL, Fluka, type DC 200) to prevent evaporation.
Bar-coded assay plates are robotically loaded onto a thermostatically controlled PCR-type thermal block and then heated at a typical ramp-rate of 1° C./min for all experiments. Fluorescence was measured by continuous illumination with UV light (Hamamatsu LC6) supplied via fiber optic and filtered through a band-pass filter (380-400 nm; >6 OD cutoff). Fluorescence emission of the entire 384-well plate was detected by measuring light intensity using a CCD camera (Sensys, Roper Scientific) filtered to detect 500±25 nm, resulting in simultaneous and independent readings of all 384 wells. Images were collected at each temperature, and the sum of the pixel intensity in a given area of the assay plate was recorded versus temperature. Reference wells contained RORγt without compounds, and the assay conditions were as follows: • 0.065 mg/mL RORγt • 60 μM 1,8-ANS • 100 mM Hepes, pH 7.0 • 10 mM NaCl • 2.5 mM GSH • 0.002% Tween-20
Project compounds were arranged in a pre-dosed mother plate (Greiner Bio-one) wherein compounds are serially diluted in 100% DMSO by 1:2 from a high concentration of 10 mM over 12 columns within a series (column 12 is a reference well containing DMSO, no compound). The compounds were robotically dispensed directly into assay plates (1×=46 nL) using a Hummingbird capillary liquid handling instrument (Digilab). Following compound dispense, protein and dye in buffer was added to achieve the final assay volume of 3 μL, followed by 1 μL of silicone oil.

Counter-ions that a name gives are not always drawn. A value given as a limit tells only on which side of the number the result lay.

Chain of human RORγt LBD (P51449 258-518): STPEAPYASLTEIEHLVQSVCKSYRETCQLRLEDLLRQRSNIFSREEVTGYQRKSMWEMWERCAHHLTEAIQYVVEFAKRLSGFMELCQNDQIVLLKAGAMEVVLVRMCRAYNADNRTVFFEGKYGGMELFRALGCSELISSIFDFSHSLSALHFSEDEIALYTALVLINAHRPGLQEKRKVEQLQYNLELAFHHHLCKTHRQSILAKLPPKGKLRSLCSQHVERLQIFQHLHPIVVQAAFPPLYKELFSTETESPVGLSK
Chain of human RORγt ligand binding domain (RORγt LBD) (P51449 other isoform, or with tags, fused parts or gaps): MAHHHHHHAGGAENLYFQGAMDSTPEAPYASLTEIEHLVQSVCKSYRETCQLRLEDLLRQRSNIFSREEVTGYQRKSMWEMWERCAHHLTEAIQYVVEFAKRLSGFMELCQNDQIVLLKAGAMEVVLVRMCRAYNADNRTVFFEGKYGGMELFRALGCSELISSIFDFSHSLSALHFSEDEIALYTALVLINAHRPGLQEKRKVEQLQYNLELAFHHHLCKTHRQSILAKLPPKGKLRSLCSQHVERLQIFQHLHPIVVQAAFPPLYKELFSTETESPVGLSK

`Cn1cncc1C(O)(c1ccc(C(F)(F)F)nc1)c1ccc2nc(C#N)c(Cc3ccc(-n4cccn4)cc3)cc2c1` (single isomer, unassigned) [Example 70C, 3-(4-(1H-Pyrazol-1-yl)benzyl)-6-(hydroxy(1-methyl-1H-imidazol-5-yl)(6-(trifluoromethyl)pyridin-3-yl)methyl)quinoline-2-carbonitrile]: at human RORγt LBD, the “RORγt reporter Assay, % inhibition @ 6 μM” value was 85% and half-maximal inhibition (IC50) was put at 1.6 µM. Further, in experiment [1], the Kd was 16 µM.
`COc1ccc(C(O)(c2ccc3nc(Cl)c(Cc4ccccc4)c(Cl)c3c2)c2cncs2)cn1` (stereo not drawn) [Example 18, (3-Benzyl-2,4-dichloroquinolin-6-yl)(6-methoxypyridin-3-yl)(thiazol-5-yl)methanol]: on human RORγt LBD, the IC50 is greater than 6 µM and the inhibition at 6 µM was determined as 41%. In addition, the Kd in experiment [1] was 0.0045 µM.
For the compound `OC(c1ccc(F)cc1)(c1cccnc1)c1ccc2nc(Cl)c(Cc3ccc(-n4cccn4)cc3)c(Cl)c2c1` (stereo not drawn) [Example 46, (3-(4-(1H-Pyrazol-1-yl)benzyl)-2,4-dichloroquinolin-6-yl)(4-fluorophenyl)(pyridin-3-yl)methanol], on human RORγt LBD, the IC50 amounted to 0.052 µM and the inhibition at 6 µM is 89%. In addition, in experiment [1], the Kd is 0.022 µM.
For the compound `CCN(CC)c1nc2ccc(C(O)(c3ccc(C(F)(F)F)nc3)c3cncn3C)cc2c(C#N)c1Cc1ccc(-n2cccn2)cc1` (single isomer, unassigned) [Example 74C, 3-(4-(1H-Pyrazol-1-yl)benzyl)-2-(diethylamino)-6-(hydroxy(1-methyl-1H-imidazol-5-yl)(6-(trifluoromethyl)pyridin-3-yl)methyl)quinoline-4-carbonitrile], on human RORγt LBD, the “RORγt reporter Assay, % inhibition @ 6 μM” value was determined as 90% and the IC50 was 0.93 µM. Moreover, in experiment [1], the Kd was 21 µM.
As for `COc1nc2c(C)cc(C(O)(c3ccc(C(F)(F)F)nc3)c3cncn3C)cc2c(Cl)c1Cc1ccc(-n2cccn2)cc1` (stereo not drawn) [Example 29A, (3-(4-(1H-Pyrazol-1-yl)benzyl)-4-chloro-2-methoxy-8-methylquinolin-6-yl)(1-methyl-1H-imidazol-5-yl)(6-(trifluoromethyl)pyridin-3-yl)methanol], at human RORγt LBD, the midpoint of inhibition, the IC50, lay at 0.091 µM and the inhibition at 6 µM was determined as 96%. In addition, in experiment [1], the Kd is 0.0048 µM.
The matching figures for `Cn1cncc1C(O)(c1ccc(C(F)(F)F)nc1)c1ccc2nc(N3CCC3)c(Cc3ccc(-n4cccn4)cc3)c(Cl)c2c1` (stereo not drawn) [Example 68A, (3-(4-(1H-Pyrazol-1-yl)benzyl)-2-(azetidin-1-yl)-4-chloroquinolin-6-yl)(1-methyl-1H-imidazol-5-yl)(6-(trifluoromethyl)pyridin-3-yl)methanol]: 0.21 µM, 99% and 0.0083 µM.
Take `COc1nc2ccc(C(O)(c3ccc(Cl)cc3)c3cncn3C)cc2c(Cl)c1Cc1cc2ccccc2s1` (single isomer, unassigned) [Example 36B, (3-(benzo[b]thiophen-2-ylmethyl)-4-chloro-2-methoxyquinolin-6-yl)(4-chlorophenyl)(1-methyl-1H-imidazol-5-yl)methanol]: on human RORγt LBD, the “RORγt reporter Assay, % inhibition @ 6 μM” value turned out to be 62% and half-maximal inhibition (IC50) was put at 0.74 µM. In addition, the dissociation constant Kd in experiment [1] was 0.4 µM.
Take `COc1ccc(Cc2c(Cl)nc3ccc(C(O)(c4cccnc4)c4cccc(Cl)c4)cc3c2Cl)cc1` (stereo not drawn) [Example 6, (3-Chlorophenyl)-(2,4-dichloro-3-(4-methoxybenzyl)quinolin-6-yl)-(pyridin-3-yl)methanol.TFA]: at human RORγt LBD, the IC50 was roughly 2 µM and the inhibition at 6 µM amounted to 96%. The Kd in experiment [1] was 0.015 µM.
The matching figures for `COc1nc2c(C)cc(C(O)(c3cncn3C)c3cncn3C)cc2c(Cl)c1Cc1ccc(-n2cccn2)cc1` [Example 56, (3-(4-(1H-Pyrazol-1-yl)benzyl)-4-chloro-2-methoxy-8-methylquinolin-6-yl)bis(1-methyl-1H-imidazol-5-yl)methanol]: 0.012 µM, 102% and 0.00029 µM.
Consider `COc1nc2ccc(C(O)(c3cccnc3)c3cccc(Cl)c3)cc2c(Cl)c1Cc1ccc(F)cc1` (stereo not drawn) [Example 7, (4-Chloro-3-(4-fluorobenzyl)-2-methoxyquinolin-6-yl)(3-chlorophenyl)(pyridin-3-yl)methanol], for which, at human RORγt LBD, the IC50 was greater than 6 µM and the inhibition at 6 µM is 32%. In addition, in experiment [1], the Kd was 0.04 µM.
Take `COc1nc2ccc(C(O)(c3ccccc3)C3CCN(C(C)=O)CC3)cc2c(Cl)c1Cc1ccc(-n2cccn2)cc1` (racemic) [Example 83A, 1-(4-((3-(4-(1H-Pyrazol-1-yl)benzyl)-4-chloro-2-methoxyquinolin-6-yl)(hydroxy)(phenyl)methyl)piperidin-1-yl)ethanone]: on human RORγt LBD, half-maximal inhibition (IC50) was put at 0.039 µM and the inhibition at 6 µM came out at 104%. Moreover, the Kd in experiment [1] is 0.012 µM.
With `Cn1cncc1C(O)(c1ccc(C(F)(F)F)nc1)c1ccc2nc(N3CCC3)c(Cc3ccc(C(F)(F)F)cc3)c(Cl)c2c1` (racemic) [Example 92A, (2-(Azetidin-1-yl)-4-chloro-3-(4-(trifluoromethyl)benzyl)quinolin-6-yl)(1-methyl-1H-imidazol-5-yl)(6-(trifluoromethyl)pyridin-3-yl)methanol], on human RORγt LBD, the IC50 was 0.029 µM and the inhibition at 6 µM was 100%. The Kd in experiment [1] was 0.0025 µM.
The matching figures for `CCOc1nc2ccc(C(O)(c3cncs3)c3cncn3C)cc2cc1Cc1ccc(OC)cc1` (stereo not drawn) [Example 24, (2-Ethoxy-3-(4-methoxybenzyl)quinolin-6-yl)(1-methyl-1H-imidazol-5-yl)(thiazol-5-yl)methanol.TFA]: greater than 6 µM, 35% and 0.75 µM.
The matching figures for `COc1nc2ccc(C(O)(c3ccc(N(C)C)cc3)c3cncn3C)cc2c(Cl)c1Cc1ccc(-n2cccn2)cc1` (stereo not drawn) [Example 26, (3-(4-(1H-Pyrazol-1-yl)benzyl)-4-chloro-2-methoxyquinolin-6-yl)(4-(dimethylamino)phenyl)(1-methyl-1H-imidazol-5-yl)methanol.TFA]: 0.48 µM, 85% and 0.22 µM.
The matching figures for `Cc1ccc(C(O)(c2ccc3nc(C#N)c(Cc4ccc(C(F)(F)F)cc4)c(C#N)c3c2)c2cnnn2C)c(C)n1` (single isomer, unassigned) [Example 88B, 6-((2,6-Dimethylpyridin-3-yl)(hydroxy)(1-methyl-1H-1,2,3-triazol-5-yl)methyl)-3-(4-(trifluoromethyl)benzyl)quinoline-2,4-dicarbonitrile]: 0.14 µM, 96% and 0.029 µM.
On to `COc1nc2ccc(C(O)(c3cnnn3C)c3cnc(C)n3C)cc2c(C#N)c1Cc1ccc(C(F)(F)F)cc1` (stereo not drawn) [Example 81A, 6-((1,2-Dimethyl-1H-imidazol-5-yl)(hydroxy)(1-methyl-1H-1,2,3-triazol-5-yl)methyl)-2-methoxy-3-(4-(trifluoromethyl)benzyl)quinoline-4-carbonitrile], for which, on human RORγt LBD, half-maximal inhibition (IC50) required 0.0021 µM and the inhibition at 6 µM was determined as 104%. The Kd in experiment [1] was 0.00012 µM.
The matching figures for `OC(c1cccnc1)(c1cccc(Cl)c1)c1ccc2nc(Cl)c(Cc3cccc(Cl)c3)c(Cl)c2c1` (stereo not drawn) [Example 4, (3-Chlorophenyl)-(2,4-dichloro-3-(3-chlorobenzyl)quinolin-6-yl)-(pyridin-3-yl)methanol.TFA]: roughly 6 µM, 46% and 0.0077 µM.

As usually defined, the IC50 is the concentration needed to halve the response being measured. Low readings indicate greater potency, high ones weaker potency. As usually defined, the Kd is the equilibrium constant for the complex coming apart. What is called inhibition is the change of the read-out against control, counted positive when it falls.
